According to patent publication US12247004B2, “2-amino-N-(amino-oxo-aryl-lambda6-sulfanylidene)acetamide compounds and their therapeutic use” (Oxford Drug Design Limited, priority 2019, dated 2025):
Converted amounts (≈) assume the structure as drawn. Where two headings read alike, the source gives them in different places.

What was measured:
[1] = tested on: E. coli UT189; assay: Efficacy in a murine model of urinary tract infection (microbial burden in urine, bladder, kidney); assay type: in vivo; settings: mouse UTI
Description: All animal studies were performed under UK Home Office License PA67E0BAA (protocol E9 for UTI model) with local ethical committee clearance. All studies were performed by technicians who have completed parts A, B and C of the UK Home Office Personal License course and hold current personal licenses. All experiments were performed in dedicated Biohazard 2 facilities (the site holds a Certificate of Designation). Female mice used in these studies were supplied by Janvier laboratories and were specific pathogen free. The strain of mouse used was C3H/HeNRj, which is a well characterized inbred strain. Mice were 16-20 g on receipt and were allowed to acclimatize for at least 7 days prior to any intervention. Five days prior to infection mice were transferred onto drinking water containing 5% glucose. […] It was stored at 4° C. between doses. Test articles were prepared by solubilising in water for injection, taking the salt correction factor into account. […] Mice (n=6 per group) were infected by directly administering 0.05 mL of inoculum via the urethra into the bladder under parenteral anaesthesia. Drinking water was withheld two hours pre-infection and bladders were emptied prior to infection. Once infected, infection catheters were left in the urinary tract for 10 minutes to reduce the risk of the organism flowing back out. The mice were monitored at a frequency appropriate for their clinical condition. Mouse weights were recorded at least once daily both to ensure animals remained within ethical limits and to monitor efficacy of treatment. Twenty-four hours post infection, urine was collected from pre-treatment animals and used to assess the infection level. Urine samples were quantitatively cultured onto MacConkey's agar plates and incubated at 37° C. for 24 hours before colonies were counted. In addition, five mice were euthanised by pentobarbitone overdose to provide a 24 hour pre-treatment control group. Forty-eight hours post-infection, urine was collected from all mice. Seventy-two hours post infection, the clinical condition and body weight of all remaining animals was assessed and urine samples were collected. Animals were then euthanised by pentobarbitone overdose and kidneys and bladders were removed and weighed. Tissue samples were homogenized using a Precellys 24 dual bead beater in 2 mL ice cold sterile phosphate buffered saline. Homogenates and urine samples were quantitatively cultured onto MacConkey's agar plates and incubated at 37° C. for 24 hours before colonies were counted. Data Analysis The data from the culture burdens were analysed using appropriate non-parametric statistical models (Kruskal-Wallis using Conover-Inman to make all pairwise comparisons between groups) with StatsDirect software, and compared to pretreatment and vehicle controls.

[2] = target: Leucyl-tRNA synthetase (LeuRS) (Escherichia coli (strain K12), UniProt P07813); assay: Leucyl-tRNA synthetase enzyme inhibition (AMP-Glo; single point % inhibition at 100 μM and IC50); assay type: biochemical
Sequence of Leucyl-tRNA synthetase (LeuRS) (P07813 whole entry, looked up): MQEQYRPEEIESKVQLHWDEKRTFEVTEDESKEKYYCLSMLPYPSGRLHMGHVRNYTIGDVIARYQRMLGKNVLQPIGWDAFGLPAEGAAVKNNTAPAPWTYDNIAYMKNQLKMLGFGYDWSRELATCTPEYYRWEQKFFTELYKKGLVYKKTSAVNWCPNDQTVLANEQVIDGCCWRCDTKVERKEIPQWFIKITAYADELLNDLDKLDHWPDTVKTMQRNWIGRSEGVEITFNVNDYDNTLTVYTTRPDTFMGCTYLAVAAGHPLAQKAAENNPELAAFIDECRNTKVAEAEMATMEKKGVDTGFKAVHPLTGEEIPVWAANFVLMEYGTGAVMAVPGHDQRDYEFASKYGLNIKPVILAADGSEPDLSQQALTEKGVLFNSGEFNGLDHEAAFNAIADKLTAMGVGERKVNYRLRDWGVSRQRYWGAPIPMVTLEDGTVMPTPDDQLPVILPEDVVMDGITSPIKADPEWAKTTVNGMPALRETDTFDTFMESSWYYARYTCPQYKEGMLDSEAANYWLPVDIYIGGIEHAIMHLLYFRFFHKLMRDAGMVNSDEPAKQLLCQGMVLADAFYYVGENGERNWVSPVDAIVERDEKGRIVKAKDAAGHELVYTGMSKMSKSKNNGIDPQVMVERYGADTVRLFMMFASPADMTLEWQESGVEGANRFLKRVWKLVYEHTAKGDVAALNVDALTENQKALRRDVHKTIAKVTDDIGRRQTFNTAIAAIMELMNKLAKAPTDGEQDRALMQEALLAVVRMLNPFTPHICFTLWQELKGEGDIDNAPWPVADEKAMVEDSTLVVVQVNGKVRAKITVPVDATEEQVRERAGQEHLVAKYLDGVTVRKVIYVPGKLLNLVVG

[3] = tested on: bacteria (ATCC reference strains); assay: Antibacterial activity, MIC by broth micro-dilution (CLSI)
[4] = tested on: E. coli ATCC 25922; assay: Efficacy in a murine model of disseminated infection (microbial burden in blood, kidney, spleen); assay type: in vivo; settings: mouse, harvest 5 hr
[5] = Human cell viability / cytotoxicity (CellTiter-Glo, 24 hours); assay type: cell-based; settings: human, HepG2 cells (ATCC HB-8065); HepG2 ATCC HB-8065, 24 hours; read-out: Cytotoxicity in HepG2 ATCC HB-8065 Cell Line, IC50
In short: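 HepG2 cells (15,000/well, MEM with 1% NEAA and 1% pyruvate) were grown 2 days, then exposed to compounds in duplicate for 24 h at 1.28% DMSO. Viability was read as ATP by CellTiter-Glo luminescence relative to DMSO-only wells. IC50 is in μg/mL.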

[6] = target: Isoleucyl-tRNA synthetase (IleRS) (Escherichia coli (strain K12), UniProt P00956); assay: Isoleucyl-tRNA synthetase enzyme inhibition (AMP-Glo; single point % inhibition at 100 μM and IC50); assay type: biochemical; settings: E. coli IleRS; read-out: Enzyme Inhibition - IC50, E. coli IleRS
Sequence of Isoleucyl-tRNA synthetase (IleRS) (P00956 whole entry, looked up): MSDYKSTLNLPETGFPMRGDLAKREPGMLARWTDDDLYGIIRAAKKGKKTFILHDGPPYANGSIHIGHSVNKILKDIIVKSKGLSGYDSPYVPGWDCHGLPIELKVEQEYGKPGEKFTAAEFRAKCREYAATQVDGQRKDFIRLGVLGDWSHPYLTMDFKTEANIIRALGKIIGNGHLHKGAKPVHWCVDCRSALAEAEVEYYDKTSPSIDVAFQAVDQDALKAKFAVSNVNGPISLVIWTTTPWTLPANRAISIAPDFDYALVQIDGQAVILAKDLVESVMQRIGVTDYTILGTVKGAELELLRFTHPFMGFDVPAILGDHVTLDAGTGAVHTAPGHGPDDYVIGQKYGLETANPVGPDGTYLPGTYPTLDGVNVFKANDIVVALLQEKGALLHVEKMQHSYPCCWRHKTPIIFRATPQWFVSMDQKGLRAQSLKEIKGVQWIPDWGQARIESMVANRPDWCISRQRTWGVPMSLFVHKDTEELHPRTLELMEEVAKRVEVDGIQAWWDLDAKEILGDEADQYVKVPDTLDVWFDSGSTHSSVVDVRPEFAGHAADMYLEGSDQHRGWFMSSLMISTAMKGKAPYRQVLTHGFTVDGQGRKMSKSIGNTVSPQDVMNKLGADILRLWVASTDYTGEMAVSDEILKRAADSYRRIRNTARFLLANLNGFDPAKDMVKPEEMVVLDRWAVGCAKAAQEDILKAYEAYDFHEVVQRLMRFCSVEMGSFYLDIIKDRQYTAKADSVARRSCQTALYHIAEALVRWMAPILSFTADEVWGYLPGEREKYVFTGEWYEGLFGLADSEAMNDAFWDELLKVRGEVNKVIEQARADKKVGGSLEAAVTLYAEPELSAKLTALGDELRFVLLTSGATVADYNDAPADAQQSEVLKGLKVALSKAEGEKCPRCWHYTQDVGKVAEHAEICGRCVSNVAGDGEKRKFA
Excerpt: Study 1—Enzyme Inhibition
The aminoacylation reaction catalyzed by aminoacyl-tRNA synthetases (aaRS) takes place in two steps. In the first step, aaRS activates its cognate amino acid with ATP; and in the second step the activated amino acid is loaded to its corresponding tRNA. This reaction can be summarized as follows: aaRS+aa+ATP=aaRS-aa-AMP+PPi aaRS-aa-AMP+tRNA=aa-tRNA+AMP+aaRS […]
wherein: aaRS, aminoacyl-tRNA synthetase; aa, amino acid; aaRS-aa-AMP, enzyme-bound to aminoacyl-adenylate; AMP, adenosine monophosphate; aa-tRNA, aminoacyl-tRNA, PPi, inorganic pyrophosphate.
Isoleucyl-tRNA Synthetase a. Single Point Percentage Inhibition
The activity of the pathogenic aaRSs was monitored by measuring AMP production using the commercial kit AMP-Glo (Promega, Madison, USA).
Ligand stock solutions were prepared in 100% DMSO at 10 mM concentration. An assay buffer consisting of 100 mM Tris HCl pH 7.6, 40 mM MgCl, 20 mM KCl and 150 mM NaCl was prepared in dH2O. An enzyme solution containing 51.77 μM IleRS was prepared in assay buffer to provide 30 nM final assay concentration and 75 nM reservoir concentration for a 1:2.5 dilution in the assay. A substrate solution was also prepared in assay buffer with 50 mM L-isoleucine, 10 mM ATP and 100 mg/mL tRNA. A final assay concentration of 500 μM L-isoleucine, 5 μM ATP and 1 mg/mL tRNA and reservoir concentration of 833.33 μM L-isoleucine, 8.33 μM ATP and 1.67 mg/mL tRNA was used for a 1:1.66 dilution in assay.
Enzyme percentage inhibition values were recorded in triplicate at a single point concentration of 100 μM.
Using the same enzymatic assay in a 384-well plate format, ten point concentration response curves were generated for each compound using a top concentration of 100 μM. The known inhibitor, IleAMS was used as a positive control for the IleRS assay. 100% DMSO was used as a negative control. The IC50 was calculated based on non-linear regression analysis.

[7] = Experiment 2, 15 mg/kg/dose sc every 4 hours
[8] = Experiment 2, 45 mg/kg/dose sc every 4 hours
[9] = Acinetobacter baumannii, read-out: Antibacterial Activity (MIC), E = A. baumannii B1931
[10] = Enterobacter cloacae, read-out: Antibacterial Activity (MIC), B = Enterobacter cloacae B1966
[11] = Escherichia coli, ATCC25922, read-out: Antibacterial Activity (MIC), A = E. coli ATCC 25922
[12] = Escherichia coli, BAA2469, read-out: Antibacterial Activity (MIC), G = E. coli BAA-2469
[13] = Klebsiella pneumoniae, ATCC700603, read-out: Antibacterial Activity (MIC), C = K. pneumoniae ATCC 700603
[14] = Pseudomonas aeruginosa, ATCC27853, read-out: Antibacterial Activity (MIC), D = P. aeruginosa ATCC 27853
[15] = 30 mg/kg sc once at 1 hr post-infection
[16] = 1.875 mg/kg/dose sc 1 and 3 hr post-infection
[17] = 7.5 mg/kg/dose po 1 and 3 hr post-infection
[18] = 7.5 mg/kg/dose sc 1 and 3 hr post-infection
[19] = 30 mg/kg/dose po 1 and 3 hr post-infection
[20] = 30 mg/kg/dose sc 1 and 3 hr post-infection
[21] = Experiment 1, 5 mg/kg/dose sc every 4 hours
[22] = Experiment 1, 15 mg/kg/dose sc every 4 hours
[23] = Experiment 1, 45 mg/kg/dose sc every 4 hours
[24] = Haemophilus influenzae, ATCC49247, read-out: Antibacterial Activity (MIC), F = H. influenzae ATCC 49247
[25] = Experiment 2, 10 mg/kg/dose iv at 24, 36, 48 and 60 hr

## CC(C)C[C@H](N)C(=O)N=[S@](N)(=O)c1cc(Cl)cs1.Cl [ANASIA-124-1]
[1]; [7]
  Reduction in burden from vehicle control, Bladder 72 hr: 1.24 Log10 cfu/g or mL
  Reduction in burden from vehicle control, Kidney 72 hr: 1.60 Log10 cfu/g or mL
  Reduction in burden from vehicle control, Urine 48 hr: 0.71 Log10 cfu/g or mL
  Reduction in burden from vehicle control, Urine 72 hr: 0.66 Log10 cfu/g or mL
[1]; [8]
  Reduction in burden from vehicle control, Bladder 72 hr: 1.38 Log10 cfu/g or mL
  Reduction in burden from vehicle control, Kidney 72 hr: 2.40 Log10 cfu/g or mL
  Reduction in burden from vehicle control, Urine 48 hr: 1.85 Log10 cfu/g or mL
  Reduction in burden from vehicle control, Urine 72 hr: 1.21 Log10 cfu/g or mL
[2]
  IC50: 21.3 nM
[3]; [9]
  MIC: 8 µg/mL
[3]; [10]
  MIC: 8 µg/mL
[3]; [11]
  MIC: 0.25 µg/mL
[3]; [12]
  MIC: 1.59 µg/mL
[3]; [13]
  MIC: 16 µg/mL
[3]; [14]
  MIC: 32 µg/mL

## CN(C)c1cc(NC(=O)CNC(C)(C)C)c(O)c2c1C[C@H]1C[C@H]3[C@H](N(C)C)C(O)=C(C(N)=O)C(=O)[C@@]3(O)C(O)=C1C2=O [Tigecycline, tigecycline, reference compound]
[4]; [15]
  Reduction in burden from vehicle control, Blood: 5.13 Log10 cfu/g or mL
  Reduction in burden from vehicle control, Kidney: 5.62 Log10 cfu/g or mL
  Reduction in burden from vehicle control, Spleen: 5.15 Log10 cfu/g or mL

## CC(C)C[C@H](N)C(=O)N=[S@](N)(=O)c1scc(F)c1F.Cl [ANASIA-103-1]
[4]; [16]
  Reduction in burden from vehicle control, Blood: 0.32 Log10 cfu/g or mL
  Reduction in burden from vehicle control, Kidney: 1.26 Log10 cfu/g or mL
  Reduction in burden from vehicle control, Spleen: 0.60 Log10 cfu/g or mL
[4]; [17]
  Reduction in burden from vehicle control, Blood: 0.43 Log10 cfu/g or mL
  Reduction in burden from vehicle control, Kidney: 1.28 Log10 cfu/g or mL
  Reduction in burden from vehicle control, Spleen: 1.46 Log10 cfu/g or mL
[4]; [18]
  Reduction in burden from vehicle control, Blood: 1.26 Log10 cfu/g or mL
  Reduction in burden from vehicle control, Kidney: 1.66 Log10 cfu/g or mL
  Reduction in burden from vehicle control, Spleen: 1.64 Log10 cfu/g or mL
[4]; [19]
  Reduction in burden from vehicle control, Blood: 0.81 Log10 cfu/g or mL
  Reduction in burden from vehicle control, Kidney: 1.59 Log10 cfu/g or mL
  Reduction in burden from vehicle control, Spleen: 1.61 Log10 cfu/g or mL
[4]; [20]
  Reduction in burden from vehicle control, Blood: 2.18 Log10 cfu/g or mL
  Reduction in burden from vehicle control, Kidney: 3.06 Log10 cfu/g or mL
  Reduction in burden from vehicle control, Spleen: 2.24 Log10 cfu/g or mL
[5]
  IC50 at 24 h: > 64 µg/mL
[1]; [21]
  Reduction in burden from vehicle control, Bladder 72 hr: 1.28 Log10 cfu/g or mL
  Reduction in burden from vehicle control, Kidney 72 hr: 0.93 Log10 cfu/g or mL
  Reduction in burden from vehicle control, Urine 48 hr: 1.36 Log10 cfu/g or mL
  Reduction in burden from vehicle control, Urine 72 hr: 0.11 Log10 cfu/g or mL
[1]; [22]
  Reduction in burden from vehicle control, Bladder 72 hr: 2.08 Log10 cfu/g or mL
  Reduction in burden from vehicle control, Kidney 72 hr: 2.28 Log10 cfu/g or mL
  Reduction in burden from vehicle control, Urine 48 hr: 2.14 Log10 cfu/g or mL
  Reduction in burden from vehicle control, Urine 72 hr: 2.71 Log10 cfu/g or mL
[1]; [23]
  Reduction in burden from vehicle control, Bladder 72 hr: 1.49 Log10 cfu/g or mL
  Reduction in burden from vehicle control, Kidney 72 hr: 1.25 Log10 cfu/g or mL
  Reduction in burden from vehicle control, Urine 48 hr: 1.74 Log10 cfu/g or mL
  Reduction in burden from vehicle control, Urine 72 hr: 2.64 Log10 cfu/g or mL
[2]
  IC50: 19.5 nM
[3]; [9]
  MIC: 16 µg/mL
[3]; [11]
  MIC: 1 µg/mL
[3]; [12]
  MIC: 10.1 µg/mL
[3]; [24]
  MIC: 1 µg/mL
[3]; [13]
  MIC: 64 µg/mL
[3]; [14]
  MIC: 64 µg/mL

## CC[C@H](C)[C@H](N)C(=O)N=S(N)(=O)c1ccc(C(F)F)s1 (some centres unmarked) [ANASIA-038]
[5]
  IC50 at 24 h: > 64 µg/mL
[6]
  IC50: 15800 nM
[3]; [9]
  MIC: > 64 µg/mL
[3]; [10]
  MIC: > 64 µg/mL
[3]; [11]
  MIC: > 64 µg/mL
[3]; [24]
  MIC: 64 µg/mL (≈ 197 µM)
[3]; [13]
  MIC: > 64 µg/mL
[3]; [14]
  MIC: > 64 µg/mL

## O=C(O)c1cn(C2CC2)c2cc(N3CCNCC3)c(F)cc2c1=O [Cinprofloxacin]
[1]; [25]
  Reduction in burden from vehicle control, Bladder 72 hr: 2.74 Log10 cfu/g or mL
  Reduction in burden from vehicle control, Kidney 72 hr: 4.12 Log10 cfu/g or mL
  Reduction in burden from vehicle control, Urine 48 hr: 5.32 Log10 cfu/g or mL
  Reduction in burden from vehicle control, Urine 72 hr: 4.76 Log10 cfu/g or mL
